Test results: PMC12980401 (Science translational medicine, 2025)

Assays:
chow-fed rats [1] = test: Counterregulatory response to hindbrain glucoprivation; format: in vivo, rat
chow-fed rats [2] = format: in vivo, rat
HFD-fed rats = format: in vivo, rat
[3] = tested on: chow-fed and HFD-fed rats; test: Oral glucose tolerance test; format: in vivo, rat; settings: for Glucose-stimulated plasma insulin: OGTT
musk shrew = test: Food intake, body weight and emesis in musk shrews; format: in vivo, Suncus murinus; settings: intraperitoneal 5 mg/kg; for Food intake in musk shrews: n = 9
Half-life in rat serum = format: in vitro ADME
rats = test: Kaolin intake; settings: fourth ICV 20 μg
chow-fed rats [4] = test: Telemetry of core body temperature, physical activity and heart rate; settings: lateral ventricle, high dose ODN (100 μg), TDN 20 and 100 μg
[5] = tested on: chow-fed and HFD-fed rats; test: Insulin tolerance test; format: in vivo, rat; settings: fourth ICV TDN 200 μg/2 μl
lean and DIO mice = test: Food intake and body weight after intraperitoneal injection in mice; format: in vivo, mouse
DIO mice = test: Hyperinsulinemic-euglycemic clamp in DIO mice; format: in vivo, mouse; settings: single intraperitoneal 5 mg/kg before insulin infusion, vehicle 18%
[6] = HFD-fed rats, lateral ventricle 200 μg/2 μl
[7] = HFD-fed rats, fourth ICV TDN 200 μg/2 μl

## O=C[C@H](O)[C@@H](O)[C@H](O)[C@H](S)CO [5-TG, 5-thio-D-glucose]
chow-fed rats [1]; lean rats, fourth ICV 210 μg at dark cycle onset, versus vehicle
  Food intake after glucoprivic agent: increased food intake at 1 and 24 hours after injection

## octadecaneuropeptide [ODN]
chow-fed rats [2]; lean chow-fed rats, fourth ICV ODN 0.2, 2 and 20 μg
  24-hour body weight change: without affecting 24-hour body weight
chow-fed rats [2]; lean chow-fed rats, fourth ICV, 2 μg
  Time to consume the first bout of food (latency): delayed
chow-fed rats [2]; lean chow-fed rats, fourth ICV, 20 μg
  Size of the first meal: reduced
HFD-fed rats; HFD-maintained rats, fourth ICV, 20 μg
  24-hour food intake and body weight: decreasing 24-hour food intake and body weight
HFD-fed rats; HFD-maintained rats, fourth ICV, highest dose (20 μg)
  Meal duration 6 to 12 hours postinjection: decreased meal duration
chow-fed rats [1]; fourth ICV ODN 20 μg 15 min before ip insulin 0.75 U/kg, chow-fed rats
  Plasma glucagon after intraperitoneal insulin: lowered plasma glucagon concentrations 30 min after intraperitoneal insulin
chow-fed rats [1]; lean rats, fourth ICV ODN 20 μg pretreatment before 5-TG 210 μg
  5-TG-induced hyperglycemia (1-hour blood glucose): blunted 5-TG–induced hyperglycemia 1 hour after injection
chow-fed rats [1]; lean rats, fourth ICV ODN 20 μg/2 μl pretreatment before 5-TG 210 μg
  5-TG-mediated hyperphagia: suppressed 5-TG–mediated hyperphagia at the 4-hour time point
chow-fed rats [1]; plasma 30 min, fourth ICV ODN 20 μg before 5-TG
  Circulating free fatty acids after 5-TG: suppressed by hindbrain ODN pretreatment
[3]; DIO rats, fourth ICV 200 μg
  Glucose tolerance (OGTT): markedly improved
[3]; lean rats, fourth ICV 200 μg (higher dose)
  OGTT area under the curve: reduced the overall area under the curve
[3]; lean rats, fourth ICV 200 μg
  Glucose-stimulated plasma insulin: without enhancing glucose-stimulated plasma insulin
Musk shrew
  24-hour body weight change in musk shrews: without affecting body weight at 24 hours
  Emetic episodes in musk shrews: caused no emetic episodes
  Food intake in musk shrews: suppressed food intake at 6 and 24 hours after injection
Half-life in rat serum; rat serum, average half-life (fig. S6, I and J)
  Half-life in rat serum: 12.4 min
rats
  Kaolin intake: did not cause kaolin intake
chow-fed rats [4]
  Telemetry variables at individual hours: decreased locomotor activity at hour 8

## tridecaneuropeptide [TDN]
HFD-fed rats; [6]
  24-hour body weight: without an impact on body weight
  24-hour food intake (HFD): suppressed 24-hour food intake
[3]; [7]
  OGTT AUC: lowered the OGTT AUC
  Glucose-stimulated plasma insulin: without heightening glucose-stimulated plasma insulin concentrations
[5]
  Insulin sensitivity during insulin tolerance test: improved by fourth ICV TDN
Musk shrew
  24-hour body weight change in musk shrews: without altering 24-hour weight change
  Food intake in musk shrews: suppressed 24-hour food intake
Half-life in rat serum; rat, serum
  Half-life in rat serum: 21.2 min
Lean and DIO mice; DIO mice, daily intraperitoneal 5 mg/kg for 9 days
  Body weight loss over 9 days: 4.7%
Lean and DIO mice; DIO mice, daily intraperitoneal 5 mg/kg for 9 days, n = 6
  Daily HFD intake: suppressed HFD intake immediately on day 1
Lean and DIO mice; lean mice, peripheral administration 5 mg/kg
  24-hour food intake and body weight: no effect in lean mice
DIO mice
  Suppression of endogenous glucose appearance (Ra) relative to baseline: 57%

B1: recombinant DBI protein: recombinant diazepam binding inhibitor protein, parent of ODN (protein, UniProt P07108 2-87, looked up)
Acyl-CoA-binding protein: SQAEFEKAAEEVRHLKTKPSDEEMLFIYGHYKQATVGDINTERPGMLDFTGKAKWDAWNELKGTSKEDAMKAYINKVEELKKKYGI
chow-fed rats [2]; chow-maintained rats, fourth ICV 2 μg/2 μl
  Chow intake: suppressed chow intake at 6 and 12 hours postinjection
HFD-fed rats; HFD-maintained rats, fourth ICV 2 μg/2 μl
  HFD intake: without affecting HFD intake
